# Reference: patent US20220315534A1, “BETA ADRENERGIC AGONIST AND METHODS OF USING THE SAME” (Curasen Therapeutics, Inc., priority 2019, published 2022)
# Read-outs that look alike come from different tables or passages of the source.
# Columns and labels:
# [1] = biological target: T1, β2-adrenergic receptor (B2-AR) (Homo sapiens, UniProt P07550); experiment: cAMP Gs dynamic HTRF assay, cells expressing β2-adrenergic receptor; format: cell-based
# T1 construct: expressed in transfected cells
# Procedure: (§1) cAMP homogeneous time-resolved fluorescence (HTRF): experimental methods. Compound efficacy is determined using the cAMP Gs dynamic HTRF assay (Cisbio, catalog #62AM4PEC) largely following the manufacturer's instructions, also detailed below.
# (§2) Standard serial dilution curves are 10-point, 5-fold dilutions starting from a highest concentration of 10 μM. […] Assay plates are centrifuged at 500×g for 10 seconds. Compounds and IBMX are prepared at 2× final dose to compensate for addition of cells.
# (§3) Cell preparation: 1× stimulation buffer, washing PBS (Dulbecco's phosphate-buffered saline, —Mg —Ca; Caisson Labs, catalog #PBL01), assay PBS (Dulbecco's phosphate-buffered saline, +Mg, +Ca; Caisson Labs, catalog #PBL02) and Versene (0.02% EDTA disodium salt solution in PBS without calcium or magnesium; Caisson Labs, catalog #EDL01) are pre-warmed to 37° C. Cells expressing beta-adrenergic receptor were washed in washing PBS to remove growth medium and then released from the surface by incubating with Versene for 5-10 minutes at 37° C. Cells are harvested using assay PBS, counted manually by hemocytometer or by an automated cell counter, pelleted by centrifugation (200×g, 5 minutes) and resuspended in 37° C. 1× stimulation buffer to a final density of […]. 5 μL of the suspended cell solution (7500 cell total) are added to all wells of the 384 well assay plate, the assay plate was covered with an Axygen® plate seal (Corning PCR-SP) and incubated in a humidified 37° C. environment supplemented with 5% CO2 for 30 minutes.
# (§4) HTRF reagent addition, reading and data analysis: After 30 minutes of cell stimulation with test compound, the assay plates are centrifuged at 500×g for 10 seconds, and incubation was stopped with the addition of 5 μL cAMP-D2 acceptor, diluted 1:21 in detection and lysis buffer 2 (Cisbio 62CL2FDF) was added to all cells. Subsequently, 5 μL Anti-cAMP-Eu Donor, diluted 1:21 in detection and lysis buffer 2, was added to cells. Plates were sealed and reactions gently ‘vortexed’ at 900 rpm on a Heidolph Titramax 1000 for at least 30 minutes at room temperature. Plates are centrifuged again at 500×g for 10 seconds, and HTRF was measured using a Tecan Spark plate reader at 50 flashes per well. […] Potency estimates (EC50 and pEC50) are derived from the four-parameter nonlinear regression of the concentration-effect curve and an estimate of relative efficacy is determined by comparing the magnitude of the test compound HTRF signal window (min-max dose) with the signal window of the full agonist control, isoproterenol.
# [2] = biological target: T2, β1-adrenergic receptor (B1-AR) (Homo sapiens, UniProt P08588); experiment: cAMP Gs dynamic HTRF assay, cells expressing β1-adrenergic receptor; format: cell-based
# T2 construct: expressed in transfected cells
# Procedure: as §1, §2, §3, §4
# [3] = CHO-K1 (HitHunter) cells, read-out: Average pEC50 [Receptor subtype: B2-AR, Cell type: CHO-K1 (HitHunter)] (converted)
# [4] = CHO-K1 (HitHunter) cells, read-out: Average pEC50 [Receptor subtype: B1-AR, Cell type: CHO-K1 (HitHunter)] (converted)
# [5] = Table 2, cAMP HTRF, read-out: β2 EC50
# [6] = Table 2, cAMP HTRF, read-out: β1 EC50
# T2 sequence (P08588 whole entry): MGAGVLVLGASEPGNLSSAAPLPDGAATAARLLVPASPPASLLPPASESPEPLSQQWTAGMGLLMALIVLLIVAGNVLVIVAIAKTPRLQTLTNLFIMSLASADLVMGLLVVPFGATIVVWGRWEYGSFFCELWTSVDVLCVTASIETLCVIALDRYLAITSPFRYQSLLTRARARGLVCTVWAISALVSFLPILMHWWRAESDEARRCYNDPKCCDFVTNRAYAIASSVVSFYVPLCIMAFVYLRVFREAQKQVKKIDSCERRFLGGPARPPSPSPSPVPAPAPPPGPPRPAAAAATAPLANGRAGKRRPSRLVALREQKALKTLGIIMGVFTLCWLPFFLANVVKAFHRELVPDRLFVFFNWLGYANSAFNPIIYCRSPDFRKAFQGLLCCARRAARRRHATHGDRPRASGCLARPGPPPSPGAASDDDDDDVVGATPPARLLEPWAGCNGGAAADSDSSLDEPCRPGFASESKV
# T1 sequence (P07550 whole entry): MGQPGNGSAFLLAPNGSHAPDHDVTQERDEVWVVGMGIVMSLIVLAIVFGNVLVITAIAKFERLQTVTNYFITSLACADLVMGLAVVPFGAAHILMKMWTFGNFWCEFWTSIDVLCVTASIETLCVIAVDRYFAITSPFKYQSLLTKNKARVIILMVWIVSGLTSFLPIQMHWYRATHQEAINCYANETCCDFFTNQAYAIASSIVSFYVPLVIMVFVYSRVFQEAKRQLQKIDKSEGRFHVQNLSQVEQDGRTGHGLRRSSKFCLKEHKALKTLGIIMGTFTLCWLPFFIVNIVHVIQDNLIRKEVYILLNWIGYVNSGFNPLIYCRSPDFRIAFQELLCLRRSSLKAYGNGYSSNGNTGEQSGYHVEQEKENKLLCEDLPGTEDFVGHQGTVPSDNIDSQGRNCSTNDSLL
Compound,"EC50 [1, 3] [nM]","EC50 [2, 4] [nM]",further results
CC(C)(C)NC[C@@H](O)c1cccc2ccc(C(F)(F)F)nc12 [Compound 04-86],100 to 1000,100 to 1000,
COc1ccc(C[C@@H](C)NC[C@H](O)c2cccc3[nH]c4ccccc4c23)cc1 [Compound 04-125],< 10,10 to 100,
CC(C)(C)NC[C@@H](O)c1cccc2ccc(C#N)nc12 [Compound 04-71],100 to 1000,100 to 1000,
Cc1cc(N)nc([C@@H](O)CNC(C)(C)C)c1 [Compound 02-13],10 to 100,10 to 100,
CC(C)(C)NC[C@@H](O)c1ccc2cccc(Cl)c2n1 [Compound 04-40],10 to 100,10 to 100,
CC(C)(C)NC[C@@H](O)c1c2cn[nH]c2cc[n+]1[O-] [Compound 04-107],100 to 1000,> 1000,
Cc1cc(C(O)CNC(C)(C)C)nnc1N (stereo not shown) [Compound 02-3],100 to 1000,> 1000,
COc1ccc(CC(C)(C)NC[C@H](O)c2cccc3[nH]c4ccccc4c23)cc1 [Compound 04-55],< 10,10 to 100,
CC(C)(C)NC[C@H](O)c1ccc2ccc(C(F)(F)F)cc2n1 [Compound 04-36],< 10,< 10,
Cc1cc(N)nc([C@H](O)CNC(C)(C)C)c1 [Compound 02-12],> 1000,> 1000,
O=c1ccc2c([C@@H](O)CNC3CCC3)cccc2[nH]1 [Compound 04-142],< 10,< 10,
CC(C)(C)NC[C@H](O)c1c(Cl)ccc2[nH]ncc12 [Compound 04-139],> 1000,> 1000,
CC(C)(C)NC[C@@H](O)c1ccc2cccc(F)c2n1 [Compound 04-42],100 to 1000,100 to 1000,
CC(C)(C)NC[C@H](O)c1cnc(N)c(Cl)c1 [Compound 02-1],10 to 100,100 to 1000,"EC50 [1, 5]: 10 to 100 nM; EC50 [2, 6]: 100 to 1000 nM"
CC(C)(C)NC[C@H](O)c1cccc2c(C(F)(F)F)ccnc12 [Compound 04-69],100 to 1000,10 to 100,
CC(C)(C)NC[C@H](O)c1cnc(N)c(C(F)(F)F)c1 [Compound 02-2],,,"Average pEC50 [Receptor subtype: B2-AR; Cell type: CHO-K1 (HitHunter)] ([1]; CHO-K1 (HitHunter) cells): D (D < 6); EC50 [1, 5]: > 1000 nM; Average pEC50 [Receptor subtype: B1-AR; Cell type: CHO-K1 (HitHunter)] ([2]; CHO-K1 (HitHunter) cells): D (D < 6); EC50 [2, 6]: > 1000 nM"
CC(C)NC[C@H](O)c1cccc2[nH]c3ccccc3c12 [Compound 04-56],< 10,< 10,
CC(C)(C)NC[C@H](O)c1cccc2[nH]c(=O)oc12 [Compound 04-116],< 10,< 10,
Cc1nc(N)c(C#N)cc1[C@H](O)CNC(C)(C)C [Compound 02-11],> 1000,> 1000,
CC(C)(C)NC[C@@H](O)c1cccc2oc(=O)ccc12 [Compound 04-14],< 10,100 to 1000,
CC(C)(C)NC[C@@H](O)c1ccnc2[nH]ncc12 [Compound 04-126],> 1000,> 1000,
CC(C)(C)NC[C@H](O)c1cccc(O)n1 [Compound 02-7],> 1000,> 1000,
CC(C)(C)NCC(O)c1ccnc2ccccc12 (stereo not shown) [Compound 04-96],10 to 100,10 to 100,

Compound,"EC50 [1, 3] [nM]","EC50 [2, 4] [nM]",further results
CC(C)(C)NC[C@H](O)c1ccc2cccc(Cl)c2n1 [Compound 04-39],< 10,< 10,
COc1cc([C@@H](O)CNC(C)(C)C)c2cn[nH]c2c1 [Compound 04-154],< 10,100 to 1000,
CC(C)(C)NC[C@H](O)c1ccc(F)c2[nH]c(=O)ccc12 [Compound 04-4],< 10,< 10,
Cc1c[nH]c2nccc([C@@H](O)CNC(C)(C)C)c12 [Compound 04-114],> 1000,> 1000,
CC(C)(C)NC[C@@H](O)c1ccc(F)c2[nH]c(=O)ccc12 [Compound 04-16],10 to 100,100 to 1000,
COc1ccc([C@@H](O)CNC(C)(C)C)c2cn[nH]c12 [Compound 04-150],< 10,10 to 100,
CC(C)(C)NC[C@H](O)c1cccc2ccc(C(F)(F)F)nc12 [Compound 04-85],< 10,< 10,
CC(C)(C)NC[C@H](O)c1cccc2[nH]ccc12 [Compound 04-105],> 1000,> 1000,
CC(C)(C)NC[C@H](O)c1cccc2c1C(C)(C)C(=O)N2 [Compound 04-102],100 to 1000,100 to 1000,
CC(C)(C)NC[C@H](O)c1cccc2[nH]nc(C#N)c12 [Compound 04-151],10 to 100,< 10,
CC(C)(C)NC[C@H](O)c1cccc2c1CC(=O)N2 [Compound 04-110],> 1000,> 1000,
CC(C)(C)NC[C@H](O)c1ccnc2[nH]ncc12 [Compound 04-127],< 10,10 to 100,
CC(C)(C)NC[C@H](O)c1cccc2[nH]cc(F)c12 [Compound 04-112],< 10,< 10,
CC(C)(C)NC[C@@H](O)c1cccc2cccnc12 [Compound 04-93],100 to 1000,100 to 1000,
CC(C)(C)NC[C@H](O)c1cccc2c1C1(CC1)CN2 [Compound 04-120],100 to 1000,> 1000,
CC(C)(C)NC[C@@H](O)c1ccc(C(F)(F)F)c2cccnc12 [Compound 04-81],100 to 1000,100 to 1000,
CC(C)(C)NC[C@H](O)c1ccc2c(n1)NCC2 [Compound 04-11],10 to 100,10 to 100,
Cc1c[nH]c2cccc([C@@H](O)CNC(C)(C)C)c12 [Compound 04-111],> 1000,> 1000,
CC(C)(C)NC[C@H](O)c1cc(F)cc2cccnc12 [Compound 04-76],< 10,< 10,
CC(C)(C)NC[C@H](O)c1ccc2c(c1)[nH]c1ncccc12 [Compound 04-128],100 to 1000,> 1000,
CC(C)(C)NC[C@H](O)c1ccc2nn[nH]c2c1 [Compound 04-115],10 to 100,100 to 1000,
CC(C)(C)NC[C@H](O)c1cccc2[nH]c3ncccc3c12 [Compound 04-131],< 10,< 10,
